This data set is described as follows: Relative solubility of the physical forms. The data set is classed as physicochemical. Conditions: monohydrate as impurity in the anhydrous form.

`CC(O)C(=O)O.CN1CCN(c2ccc3nc(-c4c(N)c5c(F)cccc5[nH]c4=O)[nH]c3c2)CC1` [monohydrate form, 4-amino-5-fluoro-3-[5-(4-methylpiperazin-1-yl)-1H-benzimidazol-2-yl]quinolin-2(1H)-one lactic acid salt]: the “solubility compared with the anhydrous form” value was “less soluble”.
